Values joined by “and” are separate entries in the source; they are usually repeats but may differ in a detail not shown here. Equal entries are not always repeated.
Experiments:
[1] = molecular target: Chromo domain-containing protein 1 (Saccharomyces cerevisiae (strain ATCC 204508 / S288c) (Baker's yeast), UniProt P32657); test: ScCHD-1 Enzyme Inhibition Assay; type: functional
[2] = molecular target: T1, Ubiquitin-activating enzyme e1, putative (Leishmania donovani (strain BPK282A1), UniProt E9BSI1); test: Leishmania donovani Ubiquitin Activating Enzyme (LdE1); type: functional
T1 sequence (E9BSI1 whole entry): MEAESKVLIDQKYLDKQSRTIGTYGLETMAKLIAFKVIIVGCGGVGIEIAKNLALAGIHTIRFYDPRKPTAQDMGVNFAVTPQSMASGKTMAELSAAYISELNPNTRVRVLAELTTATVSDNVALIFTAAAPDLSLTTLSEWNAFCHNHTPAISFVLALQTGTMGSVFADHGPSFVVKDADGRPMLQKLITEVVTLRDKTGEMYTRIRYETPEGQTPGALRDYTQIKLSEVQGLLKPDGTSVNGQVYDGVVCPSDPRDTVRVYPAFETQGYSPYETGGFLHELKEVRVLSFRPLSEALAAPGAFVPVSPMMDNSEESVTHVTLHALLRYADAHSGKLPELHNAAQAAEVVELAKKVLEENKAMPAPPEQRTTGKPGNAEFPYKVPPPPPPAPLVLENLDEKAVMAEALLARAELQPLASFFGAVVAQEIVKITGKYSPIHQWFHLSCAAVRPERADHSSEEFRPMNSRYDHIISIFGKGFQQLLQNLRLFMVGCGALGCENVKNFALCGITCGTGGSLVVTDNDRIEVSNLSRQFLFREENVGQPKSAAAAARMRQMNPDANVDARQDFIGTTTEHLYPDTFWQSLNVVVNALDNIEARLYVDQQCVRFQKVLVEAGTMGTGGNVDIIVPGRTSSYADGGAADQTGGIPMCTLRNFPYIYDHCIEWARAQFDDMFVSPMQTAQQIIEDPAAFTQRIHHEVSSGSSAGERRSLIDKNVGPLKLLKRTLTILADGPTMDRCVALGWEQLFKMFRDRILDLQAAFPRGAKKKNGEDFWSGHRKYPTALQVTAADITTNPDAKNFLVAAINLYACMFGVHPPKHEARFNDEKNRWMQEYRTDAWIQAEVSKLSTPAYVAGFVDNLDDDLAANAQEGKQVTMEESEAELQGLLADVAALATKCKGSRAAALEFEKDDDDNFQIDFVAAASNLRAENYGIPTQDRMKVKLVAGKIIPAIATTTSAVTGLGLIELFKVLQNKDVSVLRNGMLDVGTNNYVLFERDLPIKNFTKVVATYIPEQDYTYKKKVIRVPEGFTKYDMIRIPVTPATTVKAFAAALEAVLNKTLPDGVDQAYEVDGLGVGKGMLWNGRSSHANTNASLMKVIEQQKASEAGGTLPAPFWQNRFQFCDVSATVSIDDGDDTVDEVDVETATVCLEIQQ

Tryptophan--tRNA ligase = Tryptophan--tRNA ligase (Mycobacterium tuberculosis (strain ATCC 25618 / H37Rv), UniProt P9WFT3); test: Biochemical assay for Mt-TrpRS; type: functional
Lysine--tRNA ligase = Lysine--tRNA ligase (Plasmodium falciparum (isolate 3D7), UniProt Q8IDJ8); test: Pf-KRS-1 (Lysyl-RNA Synthetase-1, KRS-1, cytosolic KRS) from Plasmodium falciparum. Inhibitor assay, 384 well plate, luminescence read.; type: functional
Histidine--tRNA ligase = molecular target: T2, Histidine--tRNA ligase (Leishmania infantum, UniProt A4I591); test: Leishmania infantum Histidine tRNA synthetase (LdHisRS); type: functional
T2 sequence (A4I591 whole entry): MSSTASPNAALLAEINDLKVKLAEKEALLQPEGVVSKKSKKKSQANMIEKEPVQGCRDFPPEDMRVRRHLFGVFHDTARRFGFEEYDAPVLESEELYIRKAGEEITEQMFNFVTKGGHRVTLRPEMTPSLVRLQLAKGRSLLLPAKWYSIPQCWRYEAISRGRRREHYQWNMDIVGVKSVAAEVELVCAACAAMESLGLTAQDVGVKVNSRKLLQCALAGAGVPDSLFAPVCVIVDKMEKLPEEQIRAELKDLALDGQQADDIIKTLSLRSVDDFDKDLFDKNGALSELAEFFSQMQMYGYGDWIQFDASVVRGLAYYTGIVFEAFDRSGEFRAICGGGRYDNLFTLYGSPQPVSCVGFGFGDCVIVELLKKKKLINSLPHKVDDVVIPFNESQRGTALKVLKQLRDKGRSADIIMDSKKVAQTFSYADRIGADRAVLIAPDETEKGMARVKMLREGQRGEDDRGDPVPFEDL

Plasmodium falciparum = test: Plasmodium falciparum sporozoite viability assay; type: functional, organism-based; conditions: Plasmodium falciparum
ClpP1P2 = ClpP1P2 (Mycobacterium tuberculosis (strain ATCC 25618 / H37Rv), UniProt P9WPC3+P9WPC5); test: in vitro assay to detect presence of AMC directly proportional to the activity of ClpP1P2. GHDDI collaboration.; type: functional
[3] = tested on: Mycobacterium tuberculosis; test: Cornell M. t heat shock assay; type: functional, organism-based; conditions: Mycobacterium tuberculosis
Leishmania donovani = test: Leishmania intramacrophage assay; type: functional, organism-based; conditions: Leishmania donovani
[4] = molecular target: Polyketide synthase Pks13 (Mycobacterium tuberculosis (strain ATCC 25618 / H37Rv), UniProt I6X8D2); test: Mycobacterium tuberculosis Polyketide synthase 13 Thioesterase (PKS13); type: functional
Sequence of Polyketide synthase Pks13 (I6X8D2 whole entry): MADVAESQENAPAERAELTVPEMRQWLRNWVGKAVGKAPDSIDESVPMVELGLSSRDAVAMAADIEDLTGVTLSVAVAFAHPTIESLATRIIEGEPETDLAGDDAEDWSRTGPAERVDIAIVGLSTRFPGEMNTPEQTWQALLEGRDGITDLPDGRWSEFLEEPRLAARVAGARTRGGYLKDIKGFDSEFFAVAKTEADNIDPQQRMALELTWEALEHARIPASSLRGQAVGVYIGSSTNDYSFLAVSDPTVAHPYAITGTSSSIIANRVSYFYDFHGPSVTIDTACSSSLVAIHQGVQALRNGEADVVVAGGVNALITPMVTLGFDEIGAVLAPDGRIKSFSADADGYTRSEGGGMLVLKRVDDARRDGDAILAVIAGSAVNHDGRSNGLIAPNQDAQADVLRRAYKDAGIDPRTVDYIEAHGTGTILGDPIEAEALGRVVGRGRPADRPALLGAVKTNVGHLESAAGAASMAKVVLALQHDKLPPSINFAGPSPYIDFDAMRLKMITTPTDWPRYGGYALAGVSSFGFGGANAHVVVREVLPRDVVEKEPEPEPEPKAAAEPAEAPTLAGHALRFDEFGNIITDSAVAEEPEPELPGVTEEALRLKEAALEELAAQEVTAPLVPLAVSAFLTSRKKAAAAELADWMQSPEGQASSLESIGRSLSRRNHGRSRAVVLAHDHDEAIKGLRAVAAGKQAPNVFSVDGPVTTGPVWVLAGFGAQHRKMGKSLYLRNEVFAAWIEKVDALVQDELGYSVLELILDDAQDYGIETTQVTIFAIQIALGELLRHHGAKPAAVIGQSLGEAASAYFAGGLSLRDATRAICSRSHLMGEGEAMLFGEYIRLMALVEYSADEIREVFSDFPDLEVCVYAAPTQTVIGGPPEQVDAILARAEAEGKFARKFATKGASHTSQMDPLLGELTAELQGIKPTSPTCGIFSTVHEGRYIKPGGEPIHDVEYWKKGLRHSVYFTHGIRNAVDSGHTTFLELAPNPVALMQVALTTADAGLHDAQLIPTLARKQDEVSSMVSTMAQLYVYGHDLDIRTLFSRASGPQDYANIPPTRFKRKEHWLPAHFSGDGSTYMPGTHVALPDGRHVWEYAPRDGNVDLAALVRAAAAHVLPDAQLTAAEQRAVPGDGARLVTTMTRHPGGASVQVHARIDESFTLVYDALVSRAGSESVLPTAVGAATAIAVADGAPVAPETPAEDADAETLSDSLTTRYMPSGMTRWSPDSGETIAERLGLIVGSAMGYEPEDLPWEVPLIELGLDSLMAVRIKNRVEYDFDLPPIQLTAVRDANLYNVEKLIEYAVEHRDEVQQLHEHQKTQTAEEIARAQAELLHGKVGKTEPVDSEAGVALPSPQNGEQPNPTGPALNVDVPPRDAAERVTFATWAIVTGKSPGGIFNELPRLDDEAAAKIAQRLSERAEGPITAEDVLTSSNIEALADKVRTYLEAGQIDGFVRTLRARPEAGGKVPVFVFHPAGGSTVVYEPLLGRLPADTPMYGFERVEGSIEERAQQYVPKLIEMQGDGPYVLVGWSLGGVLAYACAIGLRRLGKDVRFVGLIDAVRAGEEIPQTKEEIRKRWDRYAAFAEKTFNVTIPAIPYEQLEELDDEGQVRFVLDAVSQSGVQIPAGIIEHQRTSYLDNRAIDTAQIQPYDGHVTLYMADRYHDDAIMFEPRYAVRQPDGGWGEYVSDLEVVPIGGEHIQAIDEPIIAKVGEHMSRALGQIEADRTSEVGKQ

Sequence of Lysine--tRNA ligase (Q8IDJ8 whole entry): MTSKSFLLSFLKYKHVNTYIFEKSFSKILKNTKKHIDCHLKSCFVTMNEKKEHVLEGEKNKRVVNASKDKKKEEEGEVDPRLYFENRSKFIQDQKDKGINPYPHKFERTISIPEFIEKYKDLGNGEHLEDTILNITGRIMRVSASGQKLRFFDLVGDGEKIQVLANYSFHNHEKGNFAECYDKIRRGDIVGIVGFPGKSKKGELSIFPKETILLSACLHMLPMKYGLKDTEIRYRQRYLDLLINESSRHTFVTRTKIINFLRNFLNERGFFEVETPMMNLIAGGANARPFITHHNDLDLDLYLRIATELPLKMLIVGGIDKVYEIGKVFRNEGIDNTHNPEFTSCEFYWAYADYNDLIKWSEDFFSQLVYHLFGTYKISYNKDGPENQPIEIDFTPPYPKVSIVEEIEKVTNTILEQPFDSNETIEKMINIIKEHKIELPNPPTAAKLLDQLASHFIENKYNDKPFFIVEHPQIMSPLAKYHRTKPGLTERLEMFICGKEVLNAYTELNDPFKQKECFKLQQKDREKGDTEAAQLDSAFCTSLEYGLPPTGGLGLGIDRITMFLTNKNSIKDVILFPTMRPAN
Sequence of Chromo domain-containing protein 1 (P32657 whole entry, the tested form may be a part): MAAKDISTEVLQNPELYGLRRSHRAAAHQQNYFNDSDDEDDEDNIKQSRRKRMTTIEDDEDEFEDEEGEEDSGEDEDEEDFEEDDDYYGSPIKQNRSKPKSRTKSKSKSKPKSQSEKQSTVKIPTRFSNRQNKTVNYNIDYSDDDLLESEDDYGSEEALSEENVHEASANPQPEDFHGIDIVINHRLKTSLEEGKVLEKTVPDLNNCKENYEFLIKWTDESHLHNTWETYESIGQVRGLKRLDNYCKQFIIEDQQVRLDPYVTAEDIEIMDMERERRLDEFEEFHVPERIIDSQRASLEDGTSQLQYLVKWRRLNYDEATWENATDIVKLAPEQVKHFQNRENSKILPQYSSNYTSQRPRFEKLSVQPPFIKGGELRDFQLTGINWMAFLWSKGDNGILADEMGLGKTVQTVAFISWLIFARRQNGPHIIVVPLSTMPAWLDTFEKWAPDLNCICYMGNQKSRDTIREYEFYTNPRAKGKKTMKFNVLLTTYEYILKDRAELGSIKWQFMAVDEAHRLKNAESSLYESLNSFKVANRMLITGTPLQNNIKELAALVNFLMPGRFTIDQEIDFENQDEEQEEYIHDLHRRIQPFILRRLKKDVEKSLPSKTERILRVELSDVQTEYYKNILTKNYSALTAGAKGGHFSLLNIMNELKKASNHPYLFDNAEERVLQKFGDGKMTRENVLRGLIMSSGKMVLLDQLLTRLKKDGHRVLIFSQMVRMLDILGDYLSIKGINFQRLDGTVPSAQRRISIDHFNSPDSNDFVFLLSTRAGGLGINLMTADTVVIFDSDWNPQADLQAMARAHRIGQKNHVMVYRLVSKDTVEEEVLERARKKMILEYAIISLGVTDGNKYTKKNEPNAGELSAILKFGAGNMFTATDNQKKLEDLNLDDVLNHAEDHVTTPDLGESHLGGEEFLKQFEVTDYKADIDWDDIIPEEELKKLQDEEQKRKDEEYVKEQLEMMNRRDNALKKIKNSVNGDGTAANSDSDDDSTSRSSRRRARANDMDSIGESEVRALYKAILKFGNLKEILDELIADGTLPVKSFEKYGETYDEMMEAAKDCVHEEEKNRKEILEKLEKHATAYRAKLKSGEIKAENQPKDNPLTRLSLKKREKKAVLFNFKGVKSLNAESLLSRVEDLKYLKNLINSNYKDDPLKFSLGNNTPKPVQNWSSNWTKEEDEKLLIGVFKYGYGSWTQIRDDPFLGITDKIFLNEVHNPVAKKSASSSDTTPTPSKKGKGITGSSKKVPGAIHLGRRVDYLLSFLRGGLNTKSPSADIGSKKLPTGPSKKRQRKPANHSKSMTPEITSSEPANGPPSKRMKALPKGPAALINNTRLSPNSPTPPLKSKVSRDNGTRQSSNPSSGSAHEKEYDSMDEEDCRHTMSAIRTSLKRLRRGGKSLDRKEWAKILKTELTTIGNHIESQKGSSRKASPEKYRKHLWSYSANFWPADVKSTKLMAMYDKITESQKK
Sequence of Tryptophan--tRNA ligase (P9WFT3 whole entry): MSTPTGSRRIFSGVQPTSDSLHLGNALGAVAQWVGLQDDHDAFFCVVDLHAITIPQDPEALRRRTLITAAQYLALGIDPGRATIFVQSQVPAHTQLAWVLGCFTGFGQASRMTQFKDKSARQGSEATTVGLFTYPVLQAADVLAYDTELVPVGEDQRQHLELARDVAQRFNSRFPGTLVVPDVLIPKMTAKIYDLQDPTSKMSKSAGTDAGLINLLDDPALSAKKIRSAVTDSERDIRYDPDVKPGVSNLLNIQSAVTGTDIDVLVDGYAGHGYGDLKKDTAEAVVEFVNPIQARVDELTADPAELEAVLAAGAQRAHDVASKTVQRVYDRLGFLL
Sequence of ClpP1P2 (P9WPC5 whole entry): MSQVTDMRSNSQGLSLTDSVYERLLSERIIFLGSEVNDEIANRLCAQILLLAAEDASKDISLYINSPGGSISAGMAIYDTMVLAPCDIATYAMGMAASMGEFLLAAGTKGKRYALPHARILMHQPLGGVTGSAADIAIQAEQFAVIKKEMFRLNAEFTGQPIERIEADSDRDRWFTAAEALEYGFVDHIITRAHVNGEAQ
Sequence of ClpP1P2 (P9WPC3 whole entry): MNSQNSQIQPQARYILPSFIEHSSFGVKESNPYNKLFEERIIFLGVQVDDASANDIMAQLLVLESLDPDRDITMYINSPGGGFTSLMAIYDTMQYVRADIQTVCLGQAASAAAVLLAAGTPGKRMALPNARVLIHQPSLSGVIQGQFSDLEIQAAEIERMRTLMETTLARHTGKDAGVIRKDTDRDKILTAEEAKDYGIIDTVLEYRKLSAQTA

SMILES | IC50 [2] [µM] | IC50 (Histidine--tRNA ligase) | further results
O=C1CSC(c2cccs2)c2cnn(C3CCCC3)c2N1 (stereo unspecified) |  |  | IC50 [1]: > 29.5 µM
COc1ccc(C2=C(C)C(N3CCc4ccccc4C3)=NS2(=O)=O)cc1 |  |  | IC50 [1]: 27.1 µM and 24 µM
COC(=O)N1CCc2ccc(NC(=O)c3cn(C)nn3)cc2C1 |  |  | IC50 [1]: > 29.5 µM
CCN(CC)CCNC(=O)c1cc(C(C)C)nc(N2CCCC2)n1 |  |  | IC50 [1]: > 29.5 µM
Cc1nn(C)c(C)c1NC(=O)CCn1ncc2c(C)cccc21 |  |  | IC50 [1]: > 29.5 µM
CCS(=O)(=O)Nc1ccn(Cc2cccc(Cl)c2)n1 |  |  | IC50 [1]: > 29.5 µM
CCOc1ccc(N2CCCN=C2NC(=O)c2ccccc2C)cc1 |  |  | IC50 [1]: > 29.5 µM
O=C(COCc1nc(-c2ccncc2)no1)N1CCCCCC1 |  |  | IC50 [1]: > 29.5 µM
CC(C)N1CCC(Cc2cncc(-c3cccc(C(=O)O)c3)n2)C1 (stereo unspecified) | > 100 |  | IC50 (Tryptophan--tRNA ligase): > 195 µM
CCCN(C(=O)c1ccncc1)c1nc2c(s1)CCc1c-2cnn1C | > 100 | 20.6 µM and 17 µM | IC50 (Lysine--tRNA ligase): > 50.1 µM
COCCN(C(=O)c1ccccn1)c1nc2c(s1)CCc1c-2cnn1C | > 100 | 9.13 µM and 10.9 µM | IC50 (Plasmodium falciparum): 0.574 µM; IC50 (Lysine--tRNA ligase): > 50.1 µM
CCCN(C(=O)c1cnccn1)c1nc2c(s1)CCc1c-2cnn1C | > 100 | 60.2 µM and 72.5 µM | 
CCCN(C(=O)c1cnc(C)cn1)c1nc2c(s1)CCc1c-2cnn1C | > 100 | 43.9 µM and 33.5 µM | IC50 (Lysine--tRNA ligase): > 50.1 µM
COCCN(C(=O)c1cnccn1)c1nc2c(s1)CCc1c-2cnn1C | > 100 | > 100 µM | 
CCCN(C(=O)c1cccnc1)c1nc2c(s1)CCc1c-2cnn1C | > 100 | 16.8 µM and 13.1 µM | IC50 (Lysine--tRNA ligase): > 50.1 µM
COCc1nc2cc(NCc3nc(C)cs3)ccc2o1 | > 100 | 24.1 µM and 33.1 µM | IC50 (Lysine--tRNA ligase): > 50.1 µM
COCc1nc2cc(NCc3sc(C)nc3C)ccc2o1 | > 100 | 15.1 µM and 19.3 µM | IC50 (Lysine--tRNA ligase): > 50.1 µM
COCc1nc2cc(NCc3scnc3C)ccc2o1 | > 100 | 77.5 µM and 90.5 µM | 
COCc1nc2cc(NCc3ccc(CO)o3)ccc2o1 | > 100 | 86.1 µM and > 100 µM | 
COCc1nc2cc(NCc3cc[nH]n3)ccc2o1 | > 100 | > 100 µM | 

SMILES | IC50 [2] [µM] | IC50 (Histidine--tRNA ligase) | further results
COCc1nc2cc(NCc3ccc(C)o3)ccc2o1 | > 100 | 67.5 µM and 55.3 µM | IC50 (Lysine--tRNA ligase): > 50.1 µM
Cn1ccc(NC(=O)Cc2cccc(F)c2)n1 |  |  | IC50 [1]: > 29.5 µM
Cc1cc(C)n(CC2CN(Cc3cccc(C(N)=O)c3)CCO2)n1 (stereo unspecified) |  |  | IC50 [1]: > 29.5 µM
CNc1cc(N2CCCC2CNCc2ccc(Cl)o2)ncn1 (stereo unspecified) |  |  | IC50 [1]: > 29.5 µM
O=C(c1ccnnc1)N1C[C@@H](OCC2CCOCC2)[C@H]2OCCC[C@H]21 |  |  | IC50 [1]: > 29.5 µM
CN(C(=O)c1ccccn1)c1nc2c(s1)CCc1c-2cnn1C | > 100 | 30.7 µM and 23.3 µM | 
CCCN(C(=O)COC)c1nc2c(s1)CCc1c-2cnn1C | > 100 | 7.02 µM and 8.63 µM | IC50 (Lysine--tRNA ligase): > 50.1 µM
Cc1nc(C)n(CC2CCCN2Cc2ncc(-c3ccccc3)o2)n1 (stereo unspecified) | > 100 |  | IC50 (ClpP1P2): > 100 µM
Cc1cc(C)n(CC2CCCN2Cc2ncc(C(C)(C)C)o2)n1 (stereo unspecified) | > 100 |  | 
CS(=O)(=O)c1ccc(CNC(=O)Nc2cn[nH]c2)cc1 | > 100 |  | 
CNS(=O)(=O)c1ccc(CNC(=O)Nc2cn[nH]c2)cc1 | > 100 |  | 
NC(=O)c1ccc(CNC(=O)Nc2cn[nH]c2)cc1 | > 100 |  | IC50 (Tryptophan--tRNA ligase): > 195 µM
CNS(=O)(=O)Cc1cccc(CNC(=O)Nc2cn[nH]c2)c1 | > 100 |  | 
CCn1nc2c(cc1=O)CN(Cc1coc(-c3ccccc3)n1)CC2 | > 100 |  | 
Cn1nc2c(cc1=O)CN(Cc1coc(-c3ccccc3)n1)CC2 | > 100 |  | 
Cc1ccc(-c2nnc(CN3CCc4nn(C)c(=O)cc4C3)o2)cc1 | > 100 | 10.5 µM and 12.1 µM | 
Cn1nc2c(cc1=O)CN(Cc1coc(-c3ccc(F)cc3)n1)CC2 | > 100 | 16.5 µM and 18.8 µM | 
Cn1nc2c(cc1=O)CN(Cc1coc(-c3cccc(F)c3)n1)CC2 | > 100 | 17 µM and 14.3 µM | 
CCc1nc2n(n1)CC(NCc1nnc(C(C)C)o1)CC2 (stereo unspecified) | > 100 |  | 
CC(C)c1nc2n(n1)CC(NCc1nnc(C3CC3)o1)CC2 (stereo unspecified) | > 100 |  | 

SMILES | IC50 [2] [µM] | IC50 (Histidine--tRNA ligase) | further results
CCc1nnc(CNC2CCc3nc(C(C)C)nn3C2)o1 (stereo unspecified) | > 100 |  | IC50 [3]: > 100 µM
CC(C)c1nc2n(n1)CC(NCc1ncc(C(C)(C)C)o1)CC2 (stereo unspecified) | > 100 |  | 
Cn1nc2c(cc1=O)CN(Cc1nc(C3CC3)no1)CC2 | > 100 | 23.8 µM and 20.7 µM | 
CC(NC(=O)NCCNc1cnccn1)c1cccs1 (stereo unspecified) | > 100 |  | IC50 (Leishmania donovani): > 50.1 µM
O=C(CC1CCCO1)NCc1ccccc1Cn1cncn1 (stereo unspecified) | > 100 |  | 
O=C(CCNC(=O)C1CCCC1)NCc1ccccc1Cn1cncn1 | > 100 |  | 
O=C(CCNC(=O)C1CCCC1)NCc1cccnc1-n1cncn1 | > 100 |  | 
COc1ccc(-c2noc(CNC(C)Cn3cccn3)n2)c(OC)c1 (stereo unspecified) | > 100 |  | 
CC(Cn1cccn1)NCc1nc(-c2cccc(Cl)c2)no1 (stereo unspecified) | > 100 |  | 
CC(Cn1cccn1)NCc1nc(-c2cccs2)no1 (stereo unspecified) | > 100 |  | 
CNS(=O)(=O)Cc1ccc(CNC(=O)Nc2cn[nH]c2)cc1 | > 100 |  | IC50 (Lysine--tRNA ligase): > 50.1 µM
CN(C)c1ccc(C(=O)N2CCN(C(=O)N3CCCCC3)CC2)nn1 | > 100 |  | IC50 [4]: > 100 µM
CC(OCC1CC1)C(=O)N1CCCN(Cc2cnn(C)c2)CC1 (stereo unspecified) | > 100 |  | 
CC(OCC1CC1)C(=O)N1CCCN(Cc2nccn2C)CC1 (stereo unspecified) | > 100 |  | 
Cc1nc(CN2CCCN(C(=O)C(C)OCC3CC3)CC2)cs1 (stereo unspecified) | > 100 |  | 
Cc1ccc(-c2nc(CN3CCc4nn(C)c(=O)cc4C3)no2)cc1 | > 100 | 72.7 µM and 85.3 µM | 
Cn1nc2c(cc1=O)CN(Cc1nnc(-c3ccco3)o1)CC2 | > 100 | 44 µM and 59.9 µM | 
Cn1nc2c(cc1=O)CN(Cc1nnc(-c3ccc(F)cc3)o1)CC2 | > 100 | 83.1 µM and 70.4 µM | 
Cc1ccc(CNC(=O)CN2CCN(CC(O)C3CC3)CC2)cc1 (stereo unspecified) |  |  | IC50 [1]: > 29.5 µM

Reference: ChEMBL document CHEMBL3988442, “University of Dundee, Small-Polar-MMV Screening Library” (2021)
